Consider 18 compounds from PubChem BioAssay AID328 (DTP/NCI, 2004).

This assay relates to BDF1 mice, P388 leukemia ip, median survival T/C. Put plainly: NCI In Vivo Anticancer Drug Screen. Data for tumor model P388 Leukemia (intraperitoneal) in B6D2F1 (BDF1) mice. As to conditions: endpoint: median survival time, higher = longer survival. The gist of the method: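 Survival ratio, drug arm over vehicle arm, in mice with a transplanted tumour.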
Where [1] appears, read: dose: 100.0 mg/kg/injection, schedule: Q01DX009 (ip), vehicle: Klucel (hydroxypropylcellulose) (HPC).
The mark [2] stands for this setting: dose: 400.0 mg/kg/injection, schedule: Q01DX009 (ip), vehicle: Klucel (hydroxypropylcellulose) (HPC).
Setting [3] is: dose: 100.0 mg/kg/injection, schedule: Q04DX003 (ip), vehicle: saline sonified.
The mark [4] stands for this setting: dose: 100.0 mg/kg/injection, schedule: Q04DX003 (ip), vehicle: saline with Tween-80.
Where [5] appears, read: dose: 200.0 mg/kg/injection, schedule: Q04DX003 (ip), vehicle: saline with Tween-80.
[6] abbreviates: dose: 400.0 mg/kg/injection, schedule: Q04DX003 (ip), vehicle: saline with Tween-80.

Values joined by “and” are separate entries in the source; they are usually repeats but may differ in a detail not shown here. Equal entries are not always repeated. Toxic doses and inconclusive results are not listed.

As to `CC1CCc2c(ccc3ccccc23)C1=O` (centres undefined), the T/C is 92 % of control (dose: 100.0 mg/kg/injection, schedule: Q01DX009 (ip), vehicle: gum acacia); 107 % of control (dose: 100.0 mg/kg/injection, schedule: Q04DX003 (ip), vehicle: gum acacia); 100 % of control (dose: 200.0 mg/kg/injection, schedule: Q01DX009 (ip), vehicle: gum acacia); 103 % of control (dose: 200.0 mg/kg/injection, schedule: Q04DX003 (ip), vehicle: gum acacia); 100 % of control (dose: 400.0 mg/kg/injection, schedule: Q01DX009 (ip), vehicle: gum acacia); 89 % of control (dose: 400.0 mg/kg/injection, schedule: Q04DX003 (ip), vehicle: gum acacia).
Regarding `COc1ccc(CCC(C)=O)cc1`, the T/C is 100 % of control under setting [1]; 95 % of control (dose: 100.0 mg/kg/injection, schedule: Q04DX003 (ip), vehicle: Klucel (hydroxypropylcellulose) (HPC)); 110 % of control (dose: 200.0 mg/kg/injection, schedule: Q04DX003 (ip), vehicle: Klucel (hydroxypropylcellulose) (HPC)); 109 % of control under setting [2]; 105 % of control (dose: 400.0 mg/kg/injection, schedule: Q04DX003 (ip), vehicle: Klucel (hydroxypropylcellulose) (HPC)).
As for `C=C(Cl)C(=O)OCC`, the T/C by setting is: (dose: 5.0 mg/kg/injection, schedule: Q04DX003 (ip), vehicle: saline) 100 % of control; (dose: 10.0 mg/kg/injection, schedule: Q04DX003 (ip), vehicle: saline) 109 % of control; (dose: 20.0 mg/kg/injection, schedule: Q04DX003 (ip), vehicle: saline) 100 % of control.
As for `Oc1cccc(O)c1`, the T/C was 95 % of control (dose: 50.0 mg/kg/injection, schedule: Q01DX010 (ip), vehicle: saline) and 91 % of control (dose: 100.0 mg/kg/injection, schedule: Q01DX010 (ip), vehicle: saline).
Take `O=C(/C=C(\Cl)C(=O)NO)NO`: the T/C by setting is: (dose: 11.0 mg/kg/injection, schedule: Q01DX009 (ip), vehicle: saline) 103 % of control; (dose: 16.0 mg/kg/injection, schedule: Q01DX009 (ip), vehicle: saline) 107 % of control; (dose: 100.0 mg/kg/injection, schedule: Q01DX009 (ip), vehicle: saline) 154 % of control.
Regarding `CC(=O)OC(C)(C)/C=C/C(=O)[C@](C)(O)[C@H]1[C@H](O)C[C@@]2(C)[C@@H]3CC=C4[C@@H](C=C(O)C(=O)C4(C)C)[C@]3(C)C(=O)C[C@]12C`, the T/C runs as follows: (dose: 1.0 mg/kg/injection, schedule: Q01DX009 (ip), vehicle: saline) 100 % of control; (dose: 2.0 mg/kg/injection, schedule: Q01DX009 (ip), vehicle: saline) 110 % of control.
Regarding `NS(=O)(=O)c1ccc(NC(=S)NC(=O)/C=C/c2ccccc2)cc1`, the T/C is 90 % of control (dose: 100.0 mg/kg/injection, schedule: Q04DX003 (sc), vehicle: olive oil, sesame oil, peanut oil); 90 % of control (dose: 200.0 mg/kg/injection, schedule: Q04DX003 (sc), vehicle: olive oil, sesame oil, peanut oil); 90 % of control (dose: 400.0 mg/kg/injection, schedule: Q04DX003 (sc), vehicle: olive oil, sesame oil, peanut oil).
For `CCCCCCCCCCCCCCCC(=O)NCCO`, under setting [3], the T/C is 91 % of control.
As to `CCC[CH2][Sn]1([CH2]CCC)[O]OC(c2ccccc2)[O]1` (centres undefined), the T/C is, setting by setting: (dose: 0.5 mg/kg/injection, schedule: Q01DX009 (ip), vehicle: saline with Tween-80) 109 % of control; (dose: 1.0 mg/kg/injection, schedule: Q01DX009 (ip), vehicle: saline with Tween-80) 123 % of control; (dose: 1.25 mg/kg/injection, schedule: Q04DX003 (ip), vehicle: other) 109 % of control; (dose: 1.32 mg/kg/injection, schedule: Q01DX009 (ip), vehicle: saline with Tween-80) 115 % of control and 116 % of control; (dose: 2.0 mg/kg/injection, schedule: Q01DX009 (ip), vehicle: saline with Tween-80) 110 % of control and 120 % of control; (dose: 2.5 mg/kg/injection, schedule: Q04DX003 (ip), vehicle: other) 105 % of control and 113 % of control. Further, the T/C runs as follows: (dose: 5.0 mg/kg/injection, schedule: Q04DX003 (ip), vehicle: other) 118 % of control; (dose: 12.0 mg/kg/injection, schedule: Q01DX009 (ip), vehicle: saline with Tween-80) 150 % of control.
Regarding `O=[N+]([O-])c1cccc(/C=C/c2ccc(S(=O)(=O)F)cc2)c1`, the T/C reads like this: (dose: 50.0 mg/kg/injection, schedule: Q04DX003 (ip), vehicle: saline with Tween-80) 95 % of control; under setting [4], 109 % of control; under setting [5], 95 % of control.
As to `CC(=O)Nc1c(Cl)c(Cl)c2c(c1Cl)C(=O)c1cc(Cl)ccc1-2`, the T/C reads like this: (dose: 100.0 mg/kg/injection, schedule: Q01DX009 (ip), vehicle: saline with Tween-80) 90 % of control; under setting [4], 90 % of control; under setting [5], 90 % of control; under setting [6], 95 % of control.
For `O=C(NO)c1ccc(O)cc1`, the T/C was 118 % of control under setting [3]; 100 % of control (dose: 132.0 mg/kg/injection, schedule: Q04DX003 (ip), vehicle: saline sonified); 100 % of control (dose: 200.0 mg/kg/injection, schedule: Q04DX003 (ip), vehicle: saline sonified).
As to `CCOc1nc(OCC)nc(-c2cccn2-c2ccccc2)n1`, the T/C runs as follows: (dose: 100.0 mg/kg/injection, schedule: Q01DX001 (ip), vehicle: Klucel (hydroxypropylcellulose) (HPC)) 100 % of control; under setting [1], 86 % of control; (dose: 200.0 mg/kg/injection, schedule: Q01DX001 (ip), vehicle: Klucel (hydroxypropylcellulose) (HPC)) 104 % of control; (dose: 200.0 mg/kg/injection, schedule: Q01DX009 (ip), vehicle: Klucel (hydroxypropylcellulose) (HPC)) 100 % of control; (dose: 400.0 mg/kg/injection, schedule: Q01DX001 (ip), vehicle: Klucel (hydroxypropylcellulose) (HPC)) 90 % of control; under setting [2], 104 % of control.
For `COc1ccccc1NC(=O)Nc1cccc(Cl)c1`, the T/C runs as follows: under setting [4], 95 % of control; under setting [5], 104 % of control; under setting [6], 95 % of control.
As to `Oc1c(-c2ccccc2)cc(-[n+]2c(-c3ccccc3)cc(-c3ccccc3)cc2-c2ccccc2)cc1-c1ccccc1`, the T/C reads like this: (dose: 0.38 mg/kg/injection, schedule: Q01DX009 (ip), vehicle: saline with Tween-80) 100 % of control; (dose: 0.75 mg/kg/injection, schedule: Q01DX009 (ip), vehicle: saline with Tween-80) 108 % of control; (dose: 1.5 mg/kg/injection, schedule: Q01DX009 (ip), vehicle: saline with Tween-80) 108 % of control.
Consider `C[n+]1ccc(Nc2ccc(NC(=O)c3ccc([N+](=O)[O-])cc3)cc2)cc1`, for which the T/C reads like this: (dose: 6.25 mg/kg/injection, schedule: Q01DX009 (ip), vehicle: water) 108 % of control; (dose: 12.5 mg/kg/injection, schedule: Q01DX009 (ip), vehicle: water) 96 % of control; (dose: 12.5 mg/kg/injection, schedule: Q04DX003 (ip), vehicle: water) 100 % of control; (dose: 25.0 mg/kg/injection, schedule: Q01DX009 (ip), vehicle: water) 90 % of control; (dose: 25.0 mg/kg/injection, schedule: Q04DX003 (ip), vehicle: water) 98 % of control and 100 % of control (2×); (dose: 50.0 mg/kg/injection, schedule: Q01DX009 (ip), vehicle: water) 97 % of control. In addition, the T/C runs as follows: (dose: 100.0 mg/kg/injection, schedule: Q01DX009 (ip), vehicle: water) 107 % of control; (dose: 150.0 mg/kg/injection, schedule: Q04DX003 (ip), vehicle: water) 91 % of control.
With `CN1CCN(C)P1OCC(F)(F)F`, the T/C by setting is: (dose: 25.0 mg/kg/injection, schedule: Q01DX005 (ip), vehicle: saline) 87 % of control; (dose: 50.0 mg/kg/injection, schedule: Q01DX005 (ip), vehicle: saline) 100 % of control; (dose: 100.0 mg/kg/injection, schedule: Q01DX005 (ip), vehicle: saline) 87 % of control.
`O=C1C(=C(C(F)(F)F)C(F)(F)F)C2CCC1C2` (centres undefined): the T/C (dose: 6.25 mg/kg/injection, schedule: Q04DX003 (ip), vehicle: saline with Tween-80) is 110 % of control; the T/C (dose: 12.5 mg/kg/injection, schedule: Q04DX003 (ip), vehicle: saline with Tween-80) was 100 % of control; the T/C (dose: 25.0 mg/kg/injection, schedule: Q04DX003 (ip), vehicle: saline with Tween-80) was 90 % of control.
